Measurements from PubChem BioAssay (NCI).
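Results reflect a 48-hour exposure of cells in 96-well plates to compound at five concentrations. TGI is the concentration that stops growth completely.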

Experiments:
Assay in all cases: growth of human tumour cells (NCI), 48 h
SW-620 colon = test system: SW-620 colon
NCI-H522 lung = test system: NCI-H522 lung
OVCAR-4 ovarian = test system: OVCAR-4 ovarian
UACC-257 melanoma = test system: UACC-257 melanoma
NCI-H23 lung = test system: NCI-H23 lung
SNB-75 CNS = test system: SNB-75 CNS
UO-31 renal = test system: UO-31 renal
SF-295 CNS = test system: SF-295 CNS
MALME-3M melanoma = test system: MALME-3M melanoma
OVCAR-5 ovarian = test system: OVCAR-5 ovarian
HCT-15 colon = test system: HCT-15 colon
CCRF-CEM leukemia = test system: CCRF-CEM leukemia
SK-MEL-2 melanoma = test system: SK-MEL-2 melanoma
SK-MEL-5 melanoma = test system: SK-MEL-5 melanoma
OVCAR-3 ovarian = test system: OVCAR-3 ovarian
MCF7 breast = test system: MCF7 breast
HCT-116 colon = test system: HCT-116 colon
SF-268 CNS = test system: SF-268 CNS
LOX IMVI melanoma = test system: LOX IMVI melanoma
EKVX NSCLC = test system: EKVX NSCLC
SK-OV-3 ovarian = test system: SK-OV-3 ovarian
NCI-H226 lung = test system: NCI-H226 lung
MDA-MB-231 breast = test system: MDA-MB-231 breast
CAKI-1 renal = test system: CAKI-1 renal
UACC-62 melanoma = test system: UACC-62 melanoma
HOP-62 NSCLC = test system: HOP-62 NSCLC
HOP-92 NSCLC = test system: HOP-92 NSCLC
SN12C renal = test system: SN12C renal
SK-MEL-28 melanoma = test system: SK-MEL-28 melanoma
HT29 colon = test system: HT29 colon
DU-145 prostate = test system: DU-145 prostate
HCC-2998 colon = test system: HCC-2998 colon
T-47D breast = test system: T-47D breast
M14 melanoma = test system: M14 melanoma
SR leukemia = test system: SR leukemia
U251 CNS = test system: U251 CNS
SNB-19 CNS = test system: SNB-19 CNS
NCI/ADR-RES ovarian = test system: NCI/ADR-RES ovarian
MDA-N = test system: MDA-N
IGROV1 ovarian = test system: IGROV1 ovarian
OVCAR-8 ovarian = test system: OVCAR-8 ovarian
786-0 renal = test system: 786-0 renal
A549 NSCLC = test system: A549 NSCLC
PC-3 prostate = test system: PC-3 prostate
ACHN renal = test system: ACHN renal
MDA-MB-435 = test system: MDA-MB-435
RPMI-8226 leukemia = test system: RPMI-8226 leukemia
BT-549 breast = test system: BT-549 breast
RXF 393 renal = test system: RXF 393 renal
TK-10 renal = test system: TK-10 renal
COLO 205 colon = test system: COLO 205 colon
NCI-H460 lung = test system: NCI-H460 lung
HL-60(TB) leukemia = test system: HL-60(TB) leukemia
KM12 colon = test system: KM12 colon
A498 renal = test system: A498 renal
K-562 leukemia = test system: K-562 leukemia
MOLT-4 leukemia = test system: MOLT-4 leukemia
SF-539 CNS = test system: SF-539 CNS

How did the TGI (SW-620 colon) turn out when `Cc1ccc([N+](=O)[O-])cc1S(=O)(=O)Nc1ccc(C2=NN(S(=O)(=O)c3cc([N+](=O)[O-])ccc3C)C(c3ccccc3O)C2)cc1` (stereo not given) was run?
The TGI was greater than 100 µM.

And the TGI (NCI-H522 lung)?
The TGI was greater than 100 µM.

What about the TGI (OVCAR-4 ovarian) of the same compound?
Its TGI is greater than 100 µM.

And the TGI (UACC-257 melanoma)?
The TGI was greater than 100 µM.

What about the TGI (NCI-H23 lung) of the same compound?
The TGI was greater than 100 µM.

What about the TGI (SNB-75 CNS) of the same compound?
Its TGI is greater than 100 µM.

What about the TGI (UO-31 renal) of the same compound?
Its TGI is greater than 100 µM.

What about the TGI (SF-295 CNS) of the same compound?
The TGI was greater than 100 µM.

What about the TGI (MALME-3M melanoma) of the same compound?
The TGI was greater than 100 µM.

What about the TGI (OVCAR-5 ovarian) of the same compound?
Its TGI is greater than 100 µM.

What about the TGI (HCT-15 colon) of the same compound?
Its TGI is greater than 100 µM.

What about the TGI (CCRF-CEM leukemia) of the same compound?
The TGI was greater than 100 µM.

What about the TGI (SK-MEL-2 melanoma) of the same compound?
Its TGI is greater than 100 µM.

What about the TGI (SK-MEL-5 melanoma) of the same compound?
The TGI was greater than 100 µM.

And the TGI (OVCAR-3 ovarian)?
Its TGI is greater than 100 µM.

And the TGI (MCF7 breast)?
The TGI was greater than 100 µM.

And the TGI (HCT-116 colon)?
Its TGI is greater than 100 µM.

And the TGI (SF-268 CNS)?
Its TGI is greater than 100 µM.

And the TGI (LOX IMVI melanoma)?
Its TGI is greater than 100 µM.

What about the TGI (EKVX NSCLC) of the same compound?
Its TGI is greater than 100 µM.

What about the TGI (SK-OV-3 ovarian) of the same compound?
Its TGI is greater than 100 µM.

What about the TGI (NCI-H226 lung) of the same compound?
The TGI was greater than 100 µM.

What about the TGI (MDA-MB-231 breast) of the same compound?
Its TGI is greater than 100 µM.

What about the TGI (CAKI-1 renal) of the same compound?
Its TGI is greater than 100 µM.

And the TGI (UACC-62 melanoma)?
The TGI was greater than 100 µM.

And the TGI (HOP-62 NSCLC)?
The TGI was greater than 100 µM.

And the TGI (HOP-92 NSCLC)?
Its TGI is greater than 100 µM.

And the TGI (SN12C renal)?
Its TGI is greater than 100 µM.

And the TGI (SK-MEL-28 melanoma)?
Its TGI is greater than 100 µM.

And the TGI (HT29 colon)?
Its TGI is greater than 100 µM.

What about the TGI (DU-145 prostate) of the same compound?
Its TGI is greater than 100 µM.

What about the TGI (HCC-2998 colon) of the same compound?
The TGI was greater than 100 µM.

What about the TGI (T-47D breast) of the same compound?
Its TGI is greater than 100 µM.

And the TGI (M14 melanoma)?
The TGI was greater than 100 µM.

What about the TGI (SR leukemia) of the same compound?
Its TGI is greater than 100 µM.

And the TGI (U251 CNS)?
The TGI was greater than 100 µM.

And the TGI (SNB-19 CNS)?
The TGI was greater than 100 µM.

And the TGI (NCI/ADR-RES ovarian)?
Its TGI is greater than 100 µM.

And the TGI (MDA-N)?
The TGI was greater than 100 µM.

What about the TGI (IGROV1 ovarian) of the same compound?
The TGI was greater than 100 µM.

What about the TGI (OVCAR-8 ovarian) of the same compound?
The TGI was greater than 100 µM.

And the TGI (786-0 renal)?
The TGI was greater than 100 µM.

And the TGI (A549 NSCLC)?
Its TGI is greater than 100 µM.

What about the TGI (PC-3 prostate) of the same compound?
The TGI was greater than 100 µM.

What about the TGI (ACHN renal) of the same compound?
The TGI was greater than 100 µM.

What about the TGI (MDA-MB-435) of the same compound?
Its TGI is greater than 100 µM.

And the TGI (RPMI-8226 leukemia)?
The TGI was greater than 100 µM.

And the TGI (BT-549 breast)?
Its TGI is greater than 100 µM.

What about the TGI (RXF 393 renal) of the same compound?
The TGI was greater than 100 µM.

What about the TGI (TK-10 renal) of the same compound?
Its TGI is greater than 100 µM.

What about the TGI (COLO 205 colon) of the same compound?
The TGI was greater than 100 µM.

And the TGI (NCI-H460 lung)?
The TGI was greater than 100 µM.

What about the TGI (HL-60(TB) leukemia) of the same compound?
Its TGI is greater than 100 µM.

What about the TGI (KM12 colon) of the same compound?
Its TGI is greater than 100 µM.

And the TGI (A498 renal)?
Its TGI is 83.9 µM.

What about the TGI (K-562 leukemia) of the same compound?
Its TGI is greater than 100 µM.

What about the TGI (MOLT-4 leukemia) of the same compound?
Its TGI is greater than 100 µM.

Which results are given for `O=C(NCC(O)COc1ccccc1)c1ccccc1O` (stereo not given)?
TGI (SW-620 colon): > 100 µM; TGI (NCI-H522 lung): > 100 µM; TGI (OVCAR-4 ovarian): > 100 µM; TGI (UACC-257 melanoma): > 100 µM; TGI (NCI-H23 lung): > 100 µM; TGI (UO-31 renal): > 100 µM; TGI (SF-295 CNS): > 100 µM; TGI (MALME-3M melanoma): > 100 µM; TGI (OVCAR-5 ovarian): > 100 µM; TGI (HCT-15 colon): > 100 µM; TGI (CCRF-CEM leukemia): > 100 µM; TGI (SK-MEL-2 melanoma): > 100 µM; TGI (SK-MEL-5 melanoma): > 100 µM; TGI (OVCAR-3 ovarian): > 100 µM; TGI (MCF7 breast): > 100 µM; TGI (HCT-116 colon): > 100 µM; TGI (LOX IMVI melanoma): > 100 µM; TGI (EKVX NSCLC): > 100 µM; TGI (SK-OV-3 ovarian): > 100 µM; TGI (NCI-H226 lung): > 100 µM; TGI (MDA-MB-231 breast): > 100 µM; TGI (CAKI-1 renal): > 100 µM; TGI (UACC-62 melanoma): > 100 µM; TGI (HOP-62 NSCLC): > 100 µM; TGI (HOP-92 NSCLC): > 100 µM; TGI (SN12C renal): > 100 µM; TGI (SF-539 CNS): > 100 µM; TGI (SK-MEL-28 melanoma): > 100 µM; TGI (DU-145 prostate): > 100 µM; TGI (HCC-2998 colon): > 100 µM; TGI (T-47D breast): > 100 µM; TGI (M14 melanoma): > 100 µM; TGI (SR leukemia): > 100 µM; TGI (U251 CNS): > 100 µM; TGI (SNB-19 CNS): > 100 µM; TGI (NCI/ADR-RES ovarian): > 100 µM; TGI (MDA-N): > 100 µM; TGI (IGROV1 ovarian): > 100 µM; TGI (OVCAR-8 ovarian): > 100 µM; TGI (786-0 renal): > 100 µM; TGI (A549 NSCLC): > 100 µM; TGI (PC-3 prostate): > 100 µM; TGI (ACHN renal): > 100 µM; TGI (MDA-MB-435): > 100 µM; TGI (RPMI-8226 leukemia): > 100 µM; TGI (BT-549 breast): > 100 µM; TGI (RXF 393 renal): > 100 µM; TGI (TK-10 renal): > 100 µM; TGI (COLO 205 colon): > 100 µM; TGI (KM12 colon): > 100 µM; TGI (A498 renal): > 100 µM; TGI (K-562 leukemia): > 100 µM; TGI (MOLT-4 leukemia): 47.2 µM
